# From the NIST ThermoML archive (doi:10.1021/je3003578)
# ± gives the expanded uncertainty stated by the source.
# Assays:
# [1] = 101 kPa, Liquid
# [2] = xn = mol fraction of the nth substance listed; conditions: 283.15 K; 101 kPa; Liquid; x2 = 0
mass density ([1]; 283.15 K) [kg/m3],mass density ([1]; 288.15 K) [kg/m3],mass density ([1]; 293.15 K) [kg/m3],mass density ([1]; 298.15 K) [kg/m3],mass density ([1]; 303.15 K) [kg/m3],mass density [2] [kg/m3],Structure (SMILES)
865.36 ± 0.82,860.63 ± 0.83,855.715 ± 0.84,851.018 ± 0.86,846.075 ± 0.87,–,CCOCCCN [3-ethoxy-1-propanamine]
–,–,–,–,–,999.699 ± 0.3,O [water] + CCOCCCN
